From US20170051149A1, “AZOARYLS AS REVERSIBLY MODULATABLE TUBULIN INHIBITORS” (ECOLE NORMALE SUPERIEURE DE LYON, priority 2014, published 2017)

Experiments:
[1] = UV-Vis absorption spectra of trans and cis isomers (λstrong, εE, λiso); type: physicochemical; conditions: PBS pH = 7.4, 20% MeCN
Experimental: A(λmeas, λirrad) is used to indicate the measured UV-Vis absorption spectrum in the range 340 nm<λmeas<650 nm, as a function of the irradiating wavelength λirrad once PSS(λirrad) has been established. UV-Vis measurement of A(λmeas, λirrad) was performed. It was considered that the PSS had been established when the absorbance profile ceased to alter under continued irradiation. An isosbestic point (wavelength λiso) was found for each compound by examining where the absorption A(λmeas) was invariant with respect to changing λirrad. A(λmeas, dark) was also acquired with samples that had been kept in the dark for at least several hours, and it was assumed that no significant spectral contribution from the cis isomer was present in these spectra. […]
HPLC (high-performance liquid chromatography) was then used as described in Part A to measure ε*E(λ) and ε*Z(λ) (the separated absorption profiles of trans and cis isomers respectively, in arbitrary units which are not intercomparable in an absolute sense). It was approximated that these spectra would be identical in shape if measured under the UV-Vis conditions, so once ε*E(λ) and ε*Z(λ) were scaled appropriately relative to each other, these scaled spectra could be used to deconvolute A(λmeas, λirrad). This approximation was considered useful especially in the regions of greatest spectral interest, ie. regions of relatively strong absorption (since only rather well-absorbed wavelengths will allow significant photoisomerisation under finite photon flux). To place the arbitrary-unit absorption spectra on an absolute scale, the maximal absorption wavelength λstrong of the trans-isomer was first selected by examining A(λmeas, dark): typically, λstrong≈380 nm. with Expressing A(λstrong, dark) in units M^−1cm^−1, ε*E(λstrong) was then scaled so that εE(λstrong)=A(λstrong, dark), giving:
εE(λ)=ε*E(λ)×[A(λstrong,dark)/ε*E(λstrong)]
and the isosbestic point was used to scale the cis-isomer spectrum as per:
εZ(λ)=ε*Z(λ)×[εE(λiso)/ε*Z(λiso)]
However, using A(λstrong, dark) was preferred, since A(λiso) was typically so much smaller that the standard deviation in the scaled absorptivities which it generated was far greater.
Absorption spectra in cuvette (“UV-Vis”) were acquired on a Varian CaryScan 50 (1 cm, 100 μL or 1 mL volume) with Peltier cell temperature control unit maintained at 37° C., in PBS at pH˜7.4 containing a low percentage of cosolvent if needed (typically 2% MeCN or 5% DMSO). A ThorLabs Polychrome V monochromator with a fibre optic cable output directed into the cuvette was used to perform photoisomerisation studies by UV-Vis spectrophotometry although single LEDs of approximately 10-20 mW output, 15-20° cone angle, and 10-15 nm bandwidth FWHM, obtained commercially from Roithner Lasertechnik GmbH, were equally successful in providing repeatable monochromatic photoisomerisation. Separated spectra of trans and […] forms were acquired from the inline Diode Array Detector on the AGILENT 1260 SL coupled LC-MS system after HPLC separation. Fluorescence spectrophotometry (excitation and emission spectra) were acquired on a Varian CaryEclipse fluorescence spectrophotometer.
By the above procedure, the trans- and cis-isomers of each species were separated by HPLC as described in Part A, and ε*E(λ) and ε*Z(λ) were measured on the inline ultraviolet/visible Diode Array Detector; these were then scaled as outlined above. The parameters λstrong, εE(λstrong) and λiso are tabulated for selected compounds below (Table 1).

HeLa cells = assay: cytotoxicity by crystal violet staining; type: cell-based; conditions: 40 h
Experimental: Seven of the compounds according to the invention were selected for biological tests. Their cytotoxicity was assessed using crystal violet staining as adapted from standard procedure^[31]. Briefly, HeLa cells were seeded on 96-well plates, treated with the given concentrations of the selected compound, and exposed or not to the pulse protocol of illumination with light at 390 nm (pulses of 75 ms every 15 s). After 40 h cells were stained with crystal violet solution (0.5% crystal violet in 20% methanol) for 10 min. Unbound crystal violet was removed by rinsing with distilled water and cells were air-dried. Crystal violet was subsequently eluted from cells with 0.1 M sodium citrate in 50% ethanol. The absorbance of crystal violet is proportional to the cell number and was determined at 590 nm with a FLUOstar Omega microplate reader (BMG Labtech).
Each compound was tested at 6 doses: 100 nM, 500 nM, 1 μM, 2 μM, 5 μM and 10 μM. In order to ensure their solubility in the cell culture media, DMSO was used as a co-solvent, and to provide comparability between all samples the volume of DMSO was adjusted to obtain its final concentration as 1% in the cell culture media for all the compounds at all concentrations tested.
Results presented in Table 4 below are expressed as a fold growth relative to the control growth of the cells treated only with a co-solvent (1% DMSO), and are represented as a mean value from triplicates coming from a representative experiment.

[2] = thermal reversion halflife of spontaneous cis->trans isomerisation; type: physicochemical; conditions: PBS pH = 7.4, 20% MeCN
Description: Finally, trends in τ were ascertained by establishing the PSS at λstrong, then turning off the light source at time t0, and measuring A(λstrong, t) over time. Data were acquired for half an hour, or else the first three halflives (whichever was the shorter period), then fitted to the equation:
A(λstrong,t)=A(λstrong,dark)−[A(λstrong,dark)−A(λstrong,t0)]×e^−kt
This fit was used to return an in vitro halflife τ* for the cis->trans spontaneous thermal reversion isomerisation process, defined as τ=ln 2/k. It should be noted however, that azoaryl compounds' thermal reversion rates are known to depend strongly upon their microenvironment, such as pH and solvent/solvation effects^[7,38]. This was shown for compound (I.1), where a change of only 1.4 pH units gave a 25% change in τ*; note that different compounds are expected to respond very differently to changes in pH so no unifying trends are expected. Therefore the τ* acquired in vitro were considered appropriate only for qualitative intercomparison between samples (trend of τ* vs structure), rather than quantitative prediction of the τ values which might be experienced in cellulo or in vivo. Indeed, these in vitro τ* values appeared at least three times longer than what would have been expected based on in cellulo experiments where the pause time between activating pulses was varied.
Thermal reversion times were measured as described above. Those for selected compounds are presented below (Table 2).

[3] = photoisomerisation: photostationary state, calculated φ(λ) and E(λ), reversible cycling; type: physicochemical; conditions: irradiation at 390 nm
Experimental: In a simple analysis of the PSS(λ) and E(λ), it was approximated that ΦEZ and ΦZE (the quantum efficiencies of the photoisomerisations trans->cis and cis->trans, respectively) are equal and independent of wavelength, and also that the kinetics of spontaneous reversion could be ignored (eg. high-intensity light source). A function φ(λ) was then calculated as per: […]
If ΦEZ and ΦZE are equal and independent of wavelength, φ(λ) gives the true PSS(λ). The wavelength independence of ΦEZ and ΦZE may be an acceptable approximation in regions of relatively strong absorption within the visible spectrum. Their equality may also be an acceptable assumption: since if ΦEZ and ΦZE are unequal but only depend weakly on wavelength in regions of relatively strong absorption, then φ(λ) is a transform of the true PSS(λ); this transform preserves the features of PSS(λ) which were most desired for evaluation in this study as long as ΦEZ and ΦZE are not too different (eg less than a factor of ten difference). Indeed, the calculated φ(λ) were later confirmed by in cellulo experiments to give reliable indications of favourable wavelengths for bulk trans->cis and bulk cis->trans photoisomerisation, which is the benchmark for a suitable analysis of the PSS(λ). The advantages of calculating φ(λ) rather than exhaustively measuring the PSS(λ) experimentally are that (a) the throughput is much faster, (b) the true PSS(λ) may be difficult to achieve at weakly-absorbing wavelengths or with fast-relaxing compounds, (c) the true PSS(λ) may be difficult to measure accurately at wavelengths where one isomer strongly dominates the sample even if both are relatively strongly absorbing, and (d) the variation of PSS(λ) with changes in the local biological microenvironment (polarity, pH etc) may anyway be larger than the error incurred by the assumption φ(λ)═PSS(λ).
Also following the assumption that ΦEZ and ΦZE are equal and independent of wavelength, a photoisomerisation efficiency E(λ) was calculated as per:
E(λ)=[εE(λ)+εZ(λ)]/[εE(390)+εZ(390)]
Larger values of E(λ) therefore denote higher efficiency photoisomerisation (less photon flux is required to approach the PSS(λ)). E(λ) was parametrised to the absorption coefficients at 390 nm, since typically that wavelength gave satisfactorily strong absorption and efficient photoisomerisation. It should be noted that E(λ) are not intercomparable between different compounds. This reflects the realistic scenario that the ΦEZ (or the ΦZE) of two arbitrarily chosen compounds may differ by a significant amount, even if the approximation that ΦEZ and ΦZE are equal and independent of wavelength applies independently to each compound.
A(λstrong) was measured over time in the UV-Vis cuvette in non-degassed PBS left open to the atmosphere, […], at 37° C., while the monochromator was used to apply λirrad alternating between two values λ1 and λ2, chosen to induce net trans->cis and net cis->trans isomerisation respectively. Typical results are presented for compound I.1 (FIG. 3). The absorbance of I.1 (18 μM) was measured at λstrong=378 nm, while the irradiating wavelength was held alternately at λ1=388 nm (50 s; bulk trans->cis) then λ2=508 nm (180 s, bulk cis->trans). Higher absorbance corresponds to a greater amount of trans isomer: an absorbance of 0.27 here corresponds to an approximately 5:1 ratio of trans:cis isomer in the sample, and an absorbance of 0.12 here corresponds to an approximately 1:2 ratio of trans:cis isomer in the sample. […] Typically, compounds of the invention could be bulk-photoisomerised hundreds of times over a timescale of hours (50 representative cycles are shown in FIG. 3 for I.1), such that the majority species in a sample was photocontrollably alternated between the trans-isomer and the cis-isomer. […]

[4] = 100 nM, 390 nm (75 ms every 15 s)
[5] = 500 nM, 390 nm (75 ms every 15 s)
[6] = 1 μM, 390 nm (75 ms every 15 s)
[7] = 2 μM, 390 nm (75 ms every 15 s)
[8] = 5 μM, 390 nm (75 ms every 15 s)
[9] = 10 μM, 390 nm (75 ms every 15 s)

| SMILES | εE(λstrong) [1] [M⁻¹ cm⁻¹] | λiso [1] [nm] | λstrong [1] [nm] | τ, reversion time [2] | mean fold growth (HeLa cells; [4]) [fold] | mean fold growth (HeLa cells; 100 nM, Dark) [fold] | mean fold growth (HeLa cells; [5]) [fold] | mean fold growth (HeLa cells; 500 nM, Dark) [fold] | mean fold growth (HeLa cells; [6]) [fold] | mean fold growth (HeLa cells; 1 μM, Dark) [fold] | mean fold growth (HeLa cells; [7]) [fold] | mean fold growth (HeLa cells; 2 μM, Dark) [fold] | mean fold growth (HeLa cells; [8]) [fold] | mean fold growth (HeLa cells; 5 μM, Dark) [fold] | mean fold growth (HeLa cells; [9]) [fold] | mean fold growth (HeLa cells; 10 μM, Dark) [fold] | change in absorbance spectrum upon irradiation [3] |
| --- | --- | --- | --- | --- | --- | --- | --- | --- | --- | --- | --- | --- | --- | --- | --- | --- | --- |
| COc1ccc(N=Nc2cc(OC)c(OC)c(OC)c2)c(F)c1 [I.4, 1-(2-fluoro-4-methoxyphenyl)-2-(3,4,5-trimethoxyphenyl)diazene] | 19804 | 455 | 365 | 119 min | 0.98 | 0.93 | 0.78 | 0.93 | 0.53 | 0.89 | 0.48 | 0.94 | 0.44 | 0.94 | 0.36 | 0.78 | – |
| COc1ccc(N=Nc2cc(OC)c(OC)c(OC)c2)c(O)c1 [I.8, 5-methoxy-2-((3,4,5-trimethoxyphenyl)diazenyl)phenol] | 14900 | – | 390 | TOO FAST | – | – | – | – | – | – | – | – | – | – | – | – | no measurable change in absorbance spectrum |
| COc1ccc(N=Nc2cc(OC)c(OC)c(OC)c2)cc1 [I.6, 1-(4-methoxyphenyl)-2-(3,4,5-trimethoxyphenyl)diazene, reference compound] | 16300 | 445 | 365 | 83 min | 0.99 | 1.00 | 1.09 | 1.07 | 0.79 | 0.96 | 0.47 | 0.96 | 0.68 | 0.93 | 0.37 | 0.88 | – |
| COc1ccc(N=Nc2cc(OC)c(OC)c(OC)c2)cc1N [I.2, 2-methoxy-5-((3,4,5-trimethoxyphenyl)diazenyl)aniline] | 11400 | 470 | 365 | 0.75 min | 1.10 | 0.97 | 0.83 | 0.90 | 0.50 | 0.89 | 0.47 | 0.81 | 0.32 | 0.86 | 0.34 | 0.70 | – |

More lines, main results first:

| εE(λstrong) [1] [M⁻¹ cm⁻¹] | λiso [1] [nm] | λstrong [1] [nm] | τ, reversion time [2] | SMILES | mean fold growth (HeLa cells; [4]) [fold] | mean fold growth (HeLa cells; 100 nM, Dark) [fold] | mean fold growth (HeLa cells; [5]) [fold] | mean fold growth (HeLa cells; 500 nM, Dark) [fold] | mean fold growth (HeLa cells; [6]) [fold] | mean fold growth (HeLa cells; 1 μM, Dark) [fold] | mean fold growth (HeLa cells; [7]) [fold] | mean fold growth (HeLa cells; 2 μM, Dark) [fold] | mean fold growth (HeLa cells; [8]) [fold] | mean fold growth (HeLa cells; 5 μM, Dark) [fold] | mean fold growth (HeLa cells; [9]) [fold] | mean fold growth (HeLa cells; 10 μM, Dark) [fold] | change in absorbance spectrum upon irradiation [3] |
| --- | --- | --- | --- | --- | --- | --- | --- | --- | --- | --- | --- | --- | --- | --- | --- | --- | --- |
| 10872 | – | 385 | TOO FAST | COc1ccc(N=Nc2cc(OC)c(OC)c(OC)c2)c(O)c1C [I.17, 3-methoxy-2-methyl-6-((3,4,5-trimethoxyphenyl)diazenyl)phenol] | – | – | – | – | – | – | – | – | – | – | – | – | no measurable change in absorbance spectrum |
| 14430 | – | 410 | TOO FAST | COc1ccc(N=Nc2cc(OC)c(OC)c(OC)c2)c(N)c1 [I.16, 5-methoxy-2-((3,4,5-trimethoxyphenyl)diazenyl)aniline] | – | – | – | – | – | – | – | – | – | – | – | – | no measurable change in absorbance spectrum |
